From patent US9938273B2 (Plexxikon Inc., priority 2015, dated 2018)

Tests used:
FLT3-ITD = biological target: T1, FLT3-ITD (Homo sapiens, UniProt P36888); assay: AlphaScreen kinase assay with recombinant enzyme, FLT3-ITD; assay type: biochemical; conditions: 8pt; read-out: FLT3_ITD 8pt: IC50
T1 sequence (P36888 1-993): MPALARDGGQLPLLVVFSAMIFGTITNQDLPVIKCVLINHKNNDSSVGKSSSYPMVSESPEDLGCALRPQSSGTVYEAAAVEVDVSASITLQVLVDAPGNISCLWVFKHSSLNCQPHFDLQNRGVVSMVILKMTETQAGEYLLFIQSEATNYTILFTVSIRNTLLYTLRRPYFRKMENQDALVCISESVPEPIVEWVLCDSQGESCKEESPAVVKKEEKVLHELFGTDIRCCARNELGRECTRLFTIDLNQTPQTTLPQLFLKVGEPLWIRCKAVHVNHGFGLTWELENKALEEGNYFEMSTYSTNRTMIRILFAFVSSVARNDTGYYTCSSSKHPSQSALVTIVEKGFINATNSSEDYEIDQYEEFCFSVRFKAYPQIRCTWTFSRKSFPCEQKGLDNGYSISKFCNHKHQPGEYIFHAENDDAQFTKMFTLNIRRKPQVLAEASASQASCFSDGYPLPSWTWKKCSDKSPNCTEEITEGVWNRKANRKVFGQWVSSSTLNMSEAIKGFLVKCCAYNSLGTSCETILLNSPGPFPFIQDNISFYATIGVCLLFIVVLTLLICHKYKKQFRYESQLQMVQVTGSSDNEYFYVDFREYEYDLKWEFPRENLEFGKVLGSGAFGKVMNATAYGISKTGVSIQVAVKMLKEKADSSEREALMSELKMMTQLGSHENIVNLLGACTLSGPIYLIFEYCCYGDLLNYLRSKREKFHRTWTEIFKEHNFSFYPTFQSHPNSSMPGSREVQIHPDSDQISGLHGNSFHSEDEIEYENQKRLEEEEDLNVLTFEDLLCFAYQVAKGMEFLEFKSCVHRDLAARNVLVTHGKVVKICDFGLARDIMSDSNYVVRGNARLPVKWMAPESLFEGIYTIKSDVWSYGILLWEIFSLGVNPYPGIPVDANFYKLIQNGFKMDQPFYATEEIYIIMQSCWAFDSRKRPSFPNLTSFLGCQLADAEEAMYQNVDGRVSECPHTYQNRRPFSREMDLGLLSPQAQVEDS
How it was run: (§1)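 Inhibition was measured as a drop in AlphaScreen signal arising from phosphotyrosine-bead capture of a biotinylated poly(Glu4-Tyr) peptide (30 nM) phosphorylated by recombinant kinase. For IC50 work the stated final concentration was 10 μM for the FLT3 mutants and 100 μM for c-KIT.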

FLT3-D835Y = biological target: T2, FLT3-D835Y (Homo sapiens, UniProt P36888, D835Y); assay: AlphaScreen kinase assay with recombinant enzyme, FLT3-D835Y; assay type: biochemical; conditions: 8pt, GMean
T2 construct: purchased Invitrogen PV3967
T2 sequence (P36888 27-993 D835Y): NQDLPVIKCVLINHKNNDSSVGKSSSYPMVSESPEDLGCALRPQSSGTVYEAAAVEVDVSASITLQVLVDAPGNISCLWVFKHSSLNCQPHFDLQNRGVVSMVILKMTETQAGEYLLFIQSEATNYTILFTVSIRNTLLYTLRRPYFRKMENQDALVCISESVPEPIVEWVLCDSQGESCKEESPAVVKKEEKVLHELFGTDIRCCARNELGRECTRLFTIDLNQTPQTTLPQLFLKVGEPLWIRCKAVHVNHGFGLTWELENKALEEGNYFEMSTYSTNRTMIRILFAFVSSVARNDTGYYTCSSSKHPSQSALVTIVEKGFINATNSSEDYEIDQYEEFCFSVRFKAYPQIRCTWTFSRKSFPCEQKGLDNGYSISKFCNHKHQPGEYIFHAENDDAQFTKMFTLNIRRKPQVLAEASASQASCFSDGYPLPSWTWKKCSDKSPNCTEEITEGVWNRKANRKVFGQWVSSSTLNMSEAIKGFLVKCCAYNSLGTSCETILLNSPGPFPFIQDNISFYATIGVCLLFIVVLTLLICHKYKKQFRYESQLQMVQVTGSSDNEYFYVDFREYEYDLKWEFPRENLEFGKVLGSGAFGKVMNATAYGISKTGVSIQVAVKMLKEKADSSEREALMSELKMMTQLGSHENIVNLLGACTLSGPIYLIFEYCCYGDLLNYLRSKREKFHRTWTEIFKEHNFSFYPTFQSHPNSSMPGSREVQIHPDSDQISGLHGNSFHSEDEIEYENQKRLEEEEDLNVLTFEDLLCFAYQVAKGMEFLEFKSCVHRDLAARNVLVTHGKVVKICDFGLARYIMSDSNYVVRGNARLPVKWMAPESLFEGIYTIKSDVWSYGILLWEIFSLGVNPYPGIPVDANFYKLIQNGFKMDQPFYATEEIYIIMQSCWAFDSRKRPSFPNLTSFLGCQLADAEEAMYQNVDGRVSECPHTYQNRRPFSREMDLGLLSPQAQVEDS
How it was run: as §1

| SMILES | IC50 (FLT3-ITD) [µM] | IC50 (FLT3-D835Y) [µM] |
| --- | --- | --- |
| NC1CCN(C(=O)c2n[nH]c3ccc(-c4cnc5[nH]c(C6=CCN(C(=O)C7CC7)C6)cc5c4)cc23)CC1 [Compound P-0074, (4-amino-1-piperidyl)-[5-[2-[1-(cyclopropanecarbonyl)-2,5-dihydropyrrol-3-yl]-1H-pyrrolo[2,3-b]pyridin-5-yl]-1H-indazol-3-yl]methanone] | 0.0001 to 10 | 0.0001 to 10 |
| O=C(NC1CCNC1)c1cccc(-c2cnc3[nH]c(-c4ccccc4)cc3c2)n1 (centres unmarked) [Compound P-0045, 6-(2-phenyl-1H-pyrrolo[2,3-b]pyridin-5-yl)-N-pyrrolidin-3-yl-pyridine-2-carboxamide] | 0.0001 to 10 | 0.0001 to 10 |
| CNC1CCCN(C(=O)c2cccc(-c3cnc4[nH]c(-c5ccccc5)cc4c3)n2)C1 (centres unmarked) [Compound P-0080, [3-(methylamino)-1-piperidyl]-[6-(2-phenyl-1H-pyrrolo[2,3-b]pyridin-5-yl)-2-pyridyl]methanone] | 0.0001 to 10 | 0.0001 to 10 |
| N[C@H]1CCN(C(=O)c2cc(-c3cnc4[nH]c(-c5ccccc5)cc4c3)ccn2)C1 [Compound P-0046, [(3S)-3-aminopyrrolidin-1-yl]-[4-(2-phenyl-1H-pyrrolo[2,3-b]pyridin-5-yl)-2-pyridyl]methanone] | 0.0001 to 10 | 0.0001 to 10 |
| O=C(c1cccc(-c2cnc3[nH]c(-c4ccccc4)cc3c2)n1)C1CCNCC1 [Compound P-0043, [6-(2-phenyl-1H-pyrrolo[2,3-b]pyridin-5-yl)-2-pyridyl]-(4-piperidyl)methanone] | 0.0001 to 10 | 0.0001 to 10 |
| CNC(=O)C1CCN(C(=O)c2cccc(-c3cnc4[nH]c(-c5ccccc5)cc4c3)n2)CC1 [Compound P-0030, N-methyl-1-[6-(2-phenyl-1H-pyrrolo[2,3-b]pyridin-5-yl)pyridine-2-carbonyl]piperidine-4-carboxamide] | 0.0001 to 10 | 0.0001 to 10 |
| CN(C(=O)c1cccc(-c2cnc3[nH]c(-c4ccccc4)cc3c2)n1)C1CCNC1 (centres unmarked) [Compound P-0076, N-methyl-6-(2-phenyl-1H-pyrrolo[2,3-b]pyridin-5-yl)-N-pyrrolidin-3-yl-pyridine-2-carboxamide] | 0.0001 to 10 | 0.0001 to 10 |
| c1ccc(-c2cc3cc(-c4ccc5[nH]nc(NC6CCNC6)c5c4)cnc3[nH]2)cc1 (centres unmarked) [Compound P-0059, 5-(2-phenyl-1H-pyrrolo[2,3-b]pyridin-5-yl)-N-pyrrolidin-3-yl-1H-indazol-3-amine] | 0.0001 to 10 | 0.0001 to 10 |
| CCNC(=O)NC1CCN(C(=O)c2cccc(-c3cnc4[nH]c(-c5ccccc5)cc4c3)n2)CC1 [Compound P-0031, 1-ethyl-3-[1-[6-(2-phenyl-1H-pyrrolo[2,3-b]pyridin-5-yl)pyridine-2-carbonyl]-4-piperidyl]urea] | 0.0001 to 10 | 0.0001 to 10 |
| CNC1CCN(C(=O)c2cccc(-c3cnc4[nH]c(-c5ccccc5)cc4c3)n2)CC1 [Compound P-0041, [4-(methylamino)-1-piperidyl]-[6-(2-phenyl-1H-pyrrolo[2,3-b]pyridin-5-yl)-2-pyridyl]methanone] | 0.0001 to 10 | 0.0001 to 10 |
| CC1(N)CCN(C(=O)c2cccc(-c3cnc4[nH]c(-c5ccccc5)cc4c3)n2)CC1 [Compound P-0081, (4-amino-4-methyl-1-piperidyl)-[6-(2-phenyl-1H-pyrrolo[2,3-b]pyridin-5-yl)-2-pyridyl]methanone] | 0.0001 to 10 | 0.0001 to 10 |
| N[C@@H]1CN(C(=O)c2cccc(-c3cnc4[nH]c(-c5ccccc5)cc4c3)n2)CC12CC2 [Compound P-0083, [(7S)-7-amino-5-azaspiro[2.4]heptan-5-yl]-[6-(2-phenyl-1H-pyrrolo[2,3-b]pyridin-5-yl)-2-pyridyl]methanone] | 0.0001 to 10 | 0.0001 to 10 |
| N=C(N)N1CCN(C(=O)c2cccc(-c3cnc4[nH]c(-c5ccccc5)cc4c3)n2)CC1 [Compound P-0057, 4-[6-(2-phenyl-1H-pyrrolo[2,3-b]pyridin-5-yl)pyridine-2-carbonyl]piperazine-1-carboxamidine] | 0.0001 to 10 | 0.0001 to 10 |
